From US10105357B2, “Indication of antibiotic drugs for preparation of cancer inhibition pharmaceutical composition” (LAUNX BIOMEDICAL CO., LTD., priority 2014, dated 2018)
Counter-ions that a name gives are not always drawn. Like-named read-outs stand apart in the source and are kept apart here.

Legend:
Type in all cases: cell-based, human
[1] = system: cancer cell lines; assay: Cell viability analysis (WST-1) on cancer cell lines; conditions: drug 10 μM, 72 hours, WST-1; Table 3
[2] = system: MKN-45 (Gastric Adenocarcinoma); assay: Cell viability analysis, gastric cancer MKN-45; conditions: for viability at 10 µM: Homo sapiens, MKN-45, 72 h
[3] = system: A375 (Amelanotic Melanoma); assay: Cell viability analysis, skin cancer A375; conditions: for viability at 10 µM: Homo sapiens, A-375, 72 h
[4] = system: HL-60 (Acute Promyelocytic Leukemia); assay: Cell viability analysis, leukemia HL-60; conditions: for viability at 10 µM: Homo sapiens, HL-60, 72 h
[5] = system: HeLa (Cervix Adenocarcinoma); assay: Cell viability analysis, cervical cancer HeLa; conditions: for viability at 10 µM: Homo sapiens, HeLa, 72 h
[6] = system: HepG2 (Hepatocellular Carcinoma); assay: Cell viability analysis, hepatic cancer HepG2; conditions: for viability at 10 µM: Homo sapiens, HepG2, 72 h
[7] = system: A549 (Lung Adenocarcinoma); assay: Cell viability analysis, lung cancer A549; conditions: for viability at 10 µM: Homo sapiens, A549, 72 h
[8] = system: TSGH-8301 (Urinary Bladder Carcinoma); assay: Cell viability analysis, bladder cancer TSGH-8301; conditions: Homo sapiens, 72 h
[9] = system: MCF7 (Mammary Gland, Adenocarcinoma); assay: Cell viability analysis, breast cancer MCF7; conditions: for viability at 10 µM: Homo sapiens, MCF7, 72 h
[10] = system: PC3 (p53−) (Prostate Adenocarcinoma); assay: Cell viability analysis, prostate cancer PC3; conditions: for viability at 10 µM: Homo sapiens, 72 h
[11] = system: AGS (Gastric Adenocarcinoma); assay: Cell viability analysis, gastric cancer AGS; conditions: for viability at 10 µM: Homo sapiens, 72 h
[12] = system: LoVo (Colorectal Adenocarcinoma); assay: Cell viability analysis, colon cancer LoVo; conditions: for viability at 10 µM: Homo sapiens, LoVo, 72 h, read-out: cell viability (survival rate), LoVo, drug 10 μM, 72 hours, WST-1, OD450 nm
[13] = system: HI650 (Lung Adenocarcinoma); assay: Cell viability analysis, lung cancer HI650; conditions: for viability at 10 µM: Homo sapiens, NCI-H1650, 72 h
[14] = drug 10 μM, 72 hours, WST-1, OD450 nm, read-out: cell viability (survival rate), MKN-45
[15] = drug 10 μM, 72 hours, WST-1, OD450 nm, read-out: cell viability (survival rate), A375
[16] = drug 10 μM, 72 hours, WST-1, OD450 nm, read-out: cell viability (survival rate), HL-60
[17] = drug 10 μM, 72 hours, WST-1, OD450 nm, read-out: cell viability (survival rate), HeLa
[18] = drug 10 μM, 72 hours, WST-1, OD450 nm, read-out: cell viability (survival rate), HepG2
[19] = drug 10 μM, 72 hours, WST-1, OD450 nm, read-out: cell viability (survival rate), A549
[20] = drug 10 μM, 72 hours, WST-1, OD450 nm, read-out: cell viability (survival rate), TSGH
[21] = drug 10 μM, 72 hours, WST-1, OD450 nm, read-out: cell viability (survival rate), MCF7
[22] = drug 10 μM, 72 hours, WST-1, OD450 nm, read-out: cell viability (survival rate), PC3
[23] = drug 10 μM, 72 hours, WST-1, OD450 nm, read-out: cell viability (survival rate), AGS
[24] = drug 10 μM, 72 hours, WST-1, OD450 nm, read-out: cell viability (survival rate), H1650
[25] = read-out: cell viability (survival rate), MKN-45, drug 10 μM, 72 hours, WST-1, OD450 nm
[26] = read-out: cell viability (survival rate), A375, drug 10 μM, 72 hours, WST-1, OD450 nm
[27] = read-out: cell viability (survival rate), HL-60, drug 10 μM, 72 hours, WST-1, OD450 nm
[28] = read-out: cell viability (survival rate), HeLa, drug 10 μM, 72 hours, WST-1, OD450 nm
[29] = read-out: cell viability (survival rate), HepG2, drug 10 μM, 72 hours, WST-1, OD450 nm
[30] = read-out: cell viability (survival rate), A549, drug 10 μM, 72 hours, WST-1, OD450 nm
[31] = read-out: cell viability (survival rate), TSGH, drug 10 μM, 72 hours, WST-1, OD450 nm
[32] = read-out: cell viability (survival rate), MCF7, drug 10 μM, 72 hours, WST-1, OD450 nm
[33] = read-out: cell viability (survival rate), PC3, drug 10 μM, 72 hours, WST-1, OD450 nm
[34] = read-out: cell viability (survival rate), AGS, drug 10 μM, 72 hours, WST-1, OD450 nm
[35] = read-out: cell viability (survival rate), H1650, drug 10 μM, 72 hours, WST-1, OD450 nm
[36] = drug 10 μM, 72 hours, WST-1, OD450 nm

Row | Compound | inhibition effect on different cancer cell lines [1] | viability at 10 µM [2, 14] | viability at 10 µM [3, 15] | viability at 10 µM [4, 16] | viability at 10 µM [5, 17] | viability at 10 µM [6, 18] | viability at 10 µM [7, 19] | viability at 10 µM [8, 20] | viability at 10 µM [12] | viability at 10 µM [2, 25] | viability at 10 µM [3, 26] | viability at 10 µM [4, 27] | viability at 10 µM [5, 28] | viability at 10 µM [6, 29] | viability at 10 µM [7, 30] | viability at 10 µM [8, 31] | viability at 10 µM [9, 32] | viability at 10 µM [10, 33] | viability at 10 µM [11, 34] | viability at 10 µM [13, 35] | other results
1 | COc1ncnc(NS(=O)(=O)c2ccc(N)cc2)c1OC [Sulfadoxine (Sulphadoxine), Sulfadoxine] | significant inhibition effect | 87.4% | 65.5% | 111% | 78.2% | 90.5% | 96.6% | 64.3% | 92.9% |  |  |  |  |  |  |  |  |  |  |  | viability at 10 µM [9, 21]: 132%; viability at 10 µM [10, 22]: 119%; viability at 10 µM [11, 23]: 91.1%; viability at 10 µM [13, 24]: 62.2%
2 | O=C(N/N=C/c1ccc([N+](=O)[O-])o1)c1ccc(O)cc1 [Nifuroxazide] | significant inhibition effect |  |  |  |  |  |  |  | 58.3% | 51% | 51.6% | 38.8% | 66.6% | 73% | 33.2% | 56.2% | 80.1% | 92% | 36.7% | 57.6% | 
3 | CC1(C)O[C@@H]2C[C@H]3[C@@H]4C[C@H](F)C5=CC(=O)C=C[C@]5(C)[C@@]4(F)[C@@H](O)C[C@]3(C)[C@]2(C(=O)CO)O1 [Fluocinolone acetonide (Flucort-N), Fluocinolone acetonide] | significant inhibition effect | 34.9% | 45.8% | 116% | 46% | 74.5% | 52.5% | 38.3% | 52.3% |  |  |  |  |  |  |  |  |  |  |  | viability at 10 µM [9, 21]: 54.2%; viability at 10 µM [10, 22]: 40.7%; viability at 10 µM [11, 23]: 30%; viability at 10 µM [13, 24]: 58.4%
4 | COc1cnc(NS(=O)(=O)c2ccc(N)cc2)nc1 [Sulfameter (Bayrena), Sulfameter] | significant inhibition effect | 58.6% | 89.2% | 110% | 78.4% | 95.5% | 59% | 78.6% | 89.9% |  |  |  |  |  |  |  |  |  |  |  | viability at 10 µM [9, 21]: 51.7%; viability at 10 µM [10, 22]: 90.2%; viability at 10 µM [11, 23]: 67.4%; viability at 10 µM [13, 24]: 84.8%
5 | COc1cc(NS(=O)(=O)c2ccc(N)cc2)nc(OC)n1 [Sulphadimethoxine] | significant inhibition effect |  |  |  |  |  |  |  | 70.8% | 72% | 76% | 120% | 68.8% | 90.3% | 100% | 132% | 94.3% | 94% | 99.3% | 83.1% | 
6 | C[C@@H]1CN(c2c(F)c(F)c3c(=O)c(C(=O)O)cn(C4CC4)c3c2F)C[C@H](C)N1 [Orbifloxacin] | significant inhibition effect | 44.1% | 55.6% | 92.3% | 66.8% | 84.2% | 44.2% | 44.3% | 75.4% |  |  |  |  |  |  |  |  |  |  |  | viability at 10 µM [9, 21]: 33.3%; viability at 10 µM [10, 22]: 51.1%; viability at 10 µM [11, 23]: 84.5%; viability at 10 µM [13, 24]: 63.7%
7 | Nc1[nH]c(=O)ncc1F [Flucytosine (Ancobon), Flucytosine] | significant inhibition effect |  |  |  |  |  |  |  | 108% | 72.9% | 102% | 102% | 80.9% | 93.2% | 91.4% | 93.9% | 75.3% | 108% | 70.7% | 92.1% | 
8 | CC(=O)O[C@]1(C(C)=O)CC[C@H]2[C@@H]3C=C(C)C4=CC(=O)CC[C@]4(C)[C@H]3CC[C@@]21C [Megestrol Acetate] | significant inhibition effect |  |  |  |  |  |  |  | 109% | 74.8% | 80.8% | 94% | 78.6% | 88.9% |  | 74.3% | 110% | 80.3% | 84.7% | 56% | 
9 | Tenofovir [Tenofovir (Viread)] | significant inhibition effect |  |  |  |  |  |  |  |  |  |  |  |  |  |  |  |  |  |  |  | cell viability (survival rate), MKN-45 [2, 36]: 70.9; cell viability (survival rate), A375 [3, 36]: 60.6; cell viability (survival rate), HL-60 [4, 36]: 97.6; cell viability (survival rate), HeLa [5, 36]: 95.0; cell viability (survival rate), HepG2 [6, 36]: 99.0; cell viability (survival rate), A549 [7, 36]: 47.7; cell viability (survival rate), MCF7 [9, 36]: 71.1; cell viability (survival rate), PC3 [10, 36]: 68.1; cell viability (survival rate), AGS [11, 36]: 67.0; cell viability (survival rate), LoVo [12, 36]: 85.9; cell viability (survival rate), H1650 [13, 36]: 55.6
10 | CCCN1CCCC[C@H]1C(=O)Nc1c(C)cccc1C [Ropivacaine HCl] | significant inhibition effect |  |  |  |  |  |  |  | 89.7% | 132% | 71.2% | 81.3% | 126% | 98% | 118% |  | 99.2% | 110% | 64.3% | 92.4% | 
11 | CS(=O)(=O)c1ccc([C@@H](O)[C@@H](CF)NC(=O)C(Cl)Cl)cc1 [Florfenicol] | significant inhibition effect |  |  |  |  |  |  |  | 92.9% | 117% | 88.4% | 109% | 95.1% | 161% | 67.8% | 86.9% | 123% | 102% |  | 87% | 
12 | Nc1nc2c(ncn2COCCO)c(=O)[nH]1 [Acyclovir (Aciclovir), Acyclovir] | significant inhibition effect |  |  |  |  |  |  |  | 66.3% | 55.9% | 112% | 91.6% | 87.2% | 104% | 126% | 107% | 75.8% | 102% | 77.1% |  | 
